In patent US20100324017A1, “ACYLGUANIDINE DERIVATIVE” (priority 2007, published 2010):

Key:
[1] = system: scopolamine-induced spontaneous alternation behavior disorder; test: Scopolamine-induced spontaneous alternation behavior disorder in mice (Y-maze); type: in vivo; conditions: mouse, scopolamine 0.5 mg/kg i.p.
Procedure: An Improvement Effect for Scopolamine-Induced or MK-801-Induced Spontaneous Alternation Behavior in Mice
An improvement effect of the compound (I) for cognitive impairment was evaluated by the above-described well-known test method as a model of a short-term learning disorder.
Species: Male ddY mice/number of animals (number of animals per group): 6 to 10 animals per group
A mouse was introduced into the laboratory 1 hour before starting the test. The mouse was placed at one end of an arm in a Y-maze having equal lengths of arms in three directions, and was able freely explored for 8 minutes with the number of the entries into the arms were counted. Furthermore, a spontaneous alternation behavior was defined as consecutive entries into each of the three arms, and an alternation rate was defined as the percentage of the number of time of this behavior relative to the total number of the entries, and calculated by the following equation.
Alternation rate (%)=(number of spontaneous alternation behaviors/total number of entries−2)×100.
The compound to be tested was orally administered 50 minutes before the initiation of the test, and 30 minutes later, 0.5 mg/kg of scopolamine or 0.15 mg/kg of MK-801 (in the normal group, physiological saline) was intraperitoneally administered. Furthermore, for the normal group (the group administered with physiological saline) and the control group (the group administered with 0.5 mg/kg scopolamine or 0.15 mg/kg MK-801), a solvent (vehicle) was orally administered when the compound to be tested was administered. For the normal group, physiological saline was intraperitoneally administered when scopolamine was administered.
The alternation rate (%) is expressed as an average value in each group (mean±SE). In regard to the alternation rate (%), in the case where a significant difference between the normal group and the control group (Student's T test) was found, it was considered that there was an establishment of learning disorder by the administration of scopolamine or MK-801. By carrying out the Dunnett evaluation for the group administered with the compound to be tested relative to the control group, the presence or absence of the learning disorder action of the compound to be tested was determined. In each evaluation, it was considered that there was a tendency at p<0.10, and there was a significant difference at p<0.05.

human 5-HT5A receptor = target: T1, human 5-HT5A receptor (Homo sapiens, UniProt P47898); test: Test of human 5-HT5A receptor binding inhibition ([3H]5-CT, HEK293 cell membrane); conditions: [3H]5-CT binding, membrane of HEK293 cell expressing human 5-HT5A receptor
T1 construct: expressed in transfected cells; membrane preparation
T1 sequence (P47898 whole entry): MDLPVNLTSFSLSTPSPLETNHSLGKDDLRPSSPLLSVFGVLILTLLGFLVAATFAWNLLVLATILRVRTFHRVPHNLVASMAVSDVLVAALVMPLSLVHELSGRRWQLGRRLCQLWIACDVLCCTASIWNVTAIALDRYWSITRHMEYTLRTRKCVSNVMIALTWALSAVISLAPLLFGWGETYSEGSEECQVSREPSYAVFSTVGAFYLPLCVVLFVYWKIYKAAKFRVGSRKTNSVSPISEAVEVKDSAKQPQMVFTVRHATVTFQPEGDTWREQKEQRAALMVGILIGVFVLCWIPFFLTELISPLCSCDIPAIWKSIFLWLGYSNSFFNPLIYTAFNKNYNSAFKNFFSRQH
Procedure: An ORF of a human 5-HT5A receptor (Genbank AF498985) was cloned from a human hippocampal cDNA library, and then inserted into a pCR2.1 vector (Invitrogen), and Escherichia coli having the plasmid was mass cultured. Next, the human 5-HT5A receptor full-length cDNA sequence was analyzed, recombined into a pCDNA3.1 vector (Invitrogen) as an expression vector, and mass cultured. A human embryonic kidney-induced cell HEK293 cell (ATCC) was seeded, and the resulting expression plasmid (1 μg) above was added thereto together with LIPOFECTAMINE 2000 (Invitrogen; 2 μl), a gene was introduced into the HEK293 cell, and then Geneticin (G418 sulfate 500 μg/ml; Kanto Chemical Co., Inc.) was used as a drug-resistant marker to screen the expressing cell. Thus prepared gene-expressing recombinant cell was cultured in a D-MEM, 10% FCS, 1% Pc./Sm., 500 μg/ml G418 culture medium for 3 days. This experimental operation was conducted in accordance with a gene operation experiment manual of a known method (Sambrook, J. et al, Molecular Cloning-A Laboratory Manual“, Cold Spring Harabor Laboratory, NY, 1989), etc., an instruction appended in a reagent or the like.
(1) Preparation of a Membrane from an HEK293 Cell Forcibly Expressing a Human 5-HT5A Receptor
An HEK293 cell forcibly expressing a human 5-HT5A receptor was cultured in an F500 plate, and scraped for collection using a scraper. After centrifugation, the precipitates were collected and an incubation buffer (50 mM Tris (HCl) PH 7.4, 10 mM Mg504, 0.5 mM EDTA) was added thereto. After homogenization, it was further centrifuged, an incubation buffer was added to the precipitate, and the mixture was well suspended. These operations were repeatedly conducted, the protein concentration was then measured, and the preparation of a membrane was completed.
(2) Experiment on Human 5-HT5A Receptor Binding Inhibition
The compound to be tested (0.3 to 300 nM) and a 100 μM 5-CT solution in DMSO were added to a 96-well plate at 2 μl/well. The number of the wells to be measured under the same condition in one experiment was set at 2, and an average value thereof was used. It was suspended in an incubation buffer, and a HEK293 cell membrane forcibly expressing a human 5-HT5A receptor that had been prepared at 200 μg/ml was added thereto at 100 μl/well. The mixture was incubated at room temperature for 15 minutes, and a [^3H]5-CT solution (2 nM [^3H]5-CT, an incubation buffer) was then added thereto at 100 μl/well.
Separate from this, 100 μl of the solution was dispersed to a liquid scintillation vial, 2 ml of Aquasol II (registered trademark) was added thereto, followed by stirring, and the radioactivity was then measured with a liquid scintillation counter. The solution was incubated at 37° C. for 60 minutes. The reaction liquid was sucked to a 96-well GF/C filter plate that had been preliminarily treated with 0.2% polyethyleneimine, and washed six times with an ice-cooled 50 mM Tris (pH 7.5) buffer. The GF/C filter plate was dried.
MicroscintTMPS (registered trademark) was added thereto at 40 μl/well. The radioactivity remaining on the GF/C filter plate was measured in a top counter.
For the inhibitory activity for the binding of the [^3H]5-CT by the compound to be tested in each experiment, IC50 value was calculated by taking the radioactivity when only DMSO was added as 0% inhibition, and the radioactivity when 1 μM 5-CT was added as 100% inhibition. Apart from this, a Ki value was calculated from the Kd value of the [^3H]5-CT that had been determined by Scatchard analysis.
Ki=IC50 (1+Concentration of the ligands added/Kd (4.95 nM))

MAP-induced overactivity = test: MAP (methane phetamine)-induced overactivity in mice, kinetic momentum by infrared sensor; type: in vivo; conditions: mouse, oral, dose 0.01 mg/kg; MAP 1 mg/kg i.p.; total 60 minutes, P<0.05
Procedure: (§1) Evaluation of Various Drugs Relative to a Drug for Increasing the Kinetic Momentum of Mice (Methane Phetamine, MK-801) (Method for Measuring a Kinetic Momentum by Discharge of an Infrared Ray)
(§2) The effect of improving the positive symptoms and the negative symptoms of schizophrenia by the compound (I) was evaluated by measuring the kinetic momentum that had been […] with administration of the compound in a model causing the symptoms by methane phetamine (which is hereinafter simply referred to as MAP) and MK-801.
(§3) Species: Male ICR mouse/number of animals (number of animals per group): 8 to 12 animals per group
(§4) The animal was left in a laboratory for 1 hour or longer to be acclimated to the environment, and the animal was taken from the feeding cage, orally administered with a compound to be tested, and then returned to the feeding cage. After 30 minutes, it was put into a cage for measurement, and the kinetic momentum of just the compound to be tested was measured. Further, after 30 minutes, the animal was taken out, and intraperitoneally administered with a drug for increasing kinetic momentum (MAP; 1 mg/kg or MK-801; 0.3 mg/kg, all dissolved in physiological saline), and its kinetic momentum was measured for a certain time (60 minutes) using a device for measuring the kinetic momentum by means of an infrared ray sensor (CompACT AMS, Muromachi Kikai Co., Ltd.). Also, the test was carried out under non-fasting.
(§5) The 60 minutes of measurements was classified into three groups: a first half 30 minutes, a second half 30 minutes, and a total 60 minutes. For a normal mouse (a mouse administered with physiological saline) and a mouse administered with the drug for increasing kinetic momentum, a Student's T test was used for evaluation in each interval. For the group administered with the compound to be tested, a solvent (vehicle) group and a Dunnett's T test were carried out and evaluated. For the evaluation, in case where there was a significant (P<0.05) difference for the total 60 minutes, it was considered to be effective.

[2] = system: MK-801-induced overactivity; test: MK-801-induced overactivity in mice, kinetic momentum by infrared sensor; type: in vivo; conditions: mouse, oral, MK-801 0.3 mg/kg i.p.
Procedure: as §1, §2, §3, §4, §5

[3] = dose 0.01 mg/kg, total 60 minutes, P<0.05

Row | Ki (human 5-HT5A receptor) [µM] | SMILES | inhibition of MAP-induced overactivity (MAP-induced overactivity) | inhibition of MK-801-induced overactivity [2, 3] | other results
1 | – | COc1cc2c(cc1OC)C(=O)C(CC1CCN(Cc3ccccc3)CC1)C2 (stereo not drawn) [donepezil, reference compound] | – | – | inhibition of scopolamine-induced spontaneous alternation behavior disorder ([1]; dose 0.25 mg/kg): significantly inhibited
2 | ≤ 0.05 | Cl.Cl.NC(N)=NC(=O)c1ccc2c3ccccc3n(C3CCNCC3)c2c1 [Example 6, N-(diaminomethylene)-9-piperidin-4-yl-9H-carbazole-2-carboxamide dihydrochloride] | significantly inhibited | significantly inhibited | inhibition of scopolamine-induced spontaneous alternation behavior disorder ([1]; oral, dose 0.003 mg/kg): significantly inhibited
3 | ≤ 0.05 | COc1cccc(CN/C(N)=N/C(=O)c2ccc3c4ccccc4n(C4CCOCC4)c3c2)c1 [Example 194] | – | – | inhibition of MK-801-induced overactivity ([2]; dose 0.03 mg/kg): significantly inhibited
4 | ≤ 0.05 | N/C(=N\C(=O)c1ccc2c3ccccc3n(C3CCOCC3)c2c1)NCC1CC1 [Example 178] | – | significantly inhibited | –
5 | ≤ 0.05 | CC(=O)n1c2ccccc2c2ccc(C(=O)N=C(N)N)cc21 [Example 26] | – | – | inhibition of scopolamine-induced spontaneous alternation behavior disorder ([1]; oral, dose 0.03 mg/kg): significantly inhibited
6 | 0.00027 | Cc1cc(C(=O)N=C(N)N)cc2c1c1ccccc1n2C1CCOCC1 [Example 106] | significantly inhibited | – | inhibition of MK-801-induced overactivity ([2]; dose 0.03 mg/kg): significantly inhibited; inhibition of scopolamine-induced spontaneous alternation behavior disorder ([1]; oral, dose 0.0001 mg/kg): significantly inhibited
7 | 0.0083 | NC(N)=NC(=O)c1ccc2c3ccccc3n(Cc3ccccc3)c2c1 [Example 37] | – | significantly inhibited | –
8 | ≤ 0.05 | NC(N)=NC(=O)c1ccc2c3ccccc3n(C3CCCCC3)c2c1 [Example 24] | – | – | inhibition of MK-801-induced overactivity ([2]; dose 0.1 mg/kg): significantly inhibited
9 | 0.00056 | NC(N)=NC(=O)c1ccc2c3c(F)cccc3n(C3CCOCC3)c2c1 [Example 86] | significantly inhibited | significantly inhibited | inhibition of scopolamine-induced spontaneous alternation behavior disorder ([1]; oral, dose 0.0001 mg/kg): significantly inhibited
10 | ≤ 0.05 | NC(N)=NC(=O)c1ccc2c3ccccc3n(Cc3cccs3)c2c1 [Example 135] | significantly inhibited | significantly inhibited | inhibition of scopolamine-induced spontaneous alternation behavior disorder ([1]; oral, dose 0.003 mg/kg): significantly inhibited
11 | ≤ 0.05 | Cc1cc(C(=O)N=C(N)N)cc2c1c1c(F)cccc1n2C1CCOCC1 [Example 138] | – | significantly inhibited | –
12 | ≤ 0.05 | CC(C)n1c2cc(C(=O)N=C(N)N)ccc2c2c(Cl)cccc21 [Example 59] | – | – | inhibition of scopolamine-induced spontaneous alternation behavior disorder ([1]; oral, dose 0.03 mg/kg): significantly inhibited
13 | ≤ 0.05 | NC(N)=NC(=O)c1ccc2c3ccccc3n(C3CCC3)c2c1 [Example 22] | – | – | inhibition of MK-801-induced overactivity ([2]; dose 0.1 mg/kg): significantly inhibited
